From patent US9102673B2, “Substituted pyrrolo[3,2-c]pyridines as TrkA kinase inhibitors” (Merck Sharp & Dohme Corp., priority 2011, dated 2015)

What follows are compounds tested against T1, TrkA (Homo sapiens, UniProt P04629) (assay: TrkA kinase activity: phosphorylation of a fluorescently labeled peptide substrate (Caliper EZReader II)). Settings: [E]=0.37 nM, [S]=1 μM, [ATP]=2 mM, room temperature, 3 hours; read-out: Trk A EC50.
T1 construct: purchased Cell Signaling
Format: biochemical
Experimental: TrkA kinase activity was measured as the ability of the enzyme to phosphorylate a fluorescently labeled peptide substrate. Buffer salts, reagents, and fluorescently labeled peptides were purchased from Carna Biosciences and were of the highest quality available (QSS Assist TRICA_MSA Kit). Enzyme was purchased from Cell Signaling, and was used without further purification. 384-well round bottom assay plates were prepared by the addition of […] of a DMSO solution of compound at various concentrations to final inhibitor concentrations ranging from 100 μM to 0.2 μM. Next, assay buffer (10 μl) containing substrate and ATP were added, followed by addition of 10 μl of enzyme in assay buffer. Final assays concentrations were: [E]=0.37 nM, [S]=1 μM, [ATP]=2 mM. The reactions were incubated at room temperature for 3 hours resulting in approximately 15% substrate phosphorylation and were terminated by the addition of 5 μl of stop buffer. Substrates and products were separated on the Caliper EZReader II (Caliper LifeSciences, Inc.) using standard separation protocols. The percent inhibition was calculated for each compound concentration and the IC50 was determined using equation 1.

T1 sequence (P04629 33-796): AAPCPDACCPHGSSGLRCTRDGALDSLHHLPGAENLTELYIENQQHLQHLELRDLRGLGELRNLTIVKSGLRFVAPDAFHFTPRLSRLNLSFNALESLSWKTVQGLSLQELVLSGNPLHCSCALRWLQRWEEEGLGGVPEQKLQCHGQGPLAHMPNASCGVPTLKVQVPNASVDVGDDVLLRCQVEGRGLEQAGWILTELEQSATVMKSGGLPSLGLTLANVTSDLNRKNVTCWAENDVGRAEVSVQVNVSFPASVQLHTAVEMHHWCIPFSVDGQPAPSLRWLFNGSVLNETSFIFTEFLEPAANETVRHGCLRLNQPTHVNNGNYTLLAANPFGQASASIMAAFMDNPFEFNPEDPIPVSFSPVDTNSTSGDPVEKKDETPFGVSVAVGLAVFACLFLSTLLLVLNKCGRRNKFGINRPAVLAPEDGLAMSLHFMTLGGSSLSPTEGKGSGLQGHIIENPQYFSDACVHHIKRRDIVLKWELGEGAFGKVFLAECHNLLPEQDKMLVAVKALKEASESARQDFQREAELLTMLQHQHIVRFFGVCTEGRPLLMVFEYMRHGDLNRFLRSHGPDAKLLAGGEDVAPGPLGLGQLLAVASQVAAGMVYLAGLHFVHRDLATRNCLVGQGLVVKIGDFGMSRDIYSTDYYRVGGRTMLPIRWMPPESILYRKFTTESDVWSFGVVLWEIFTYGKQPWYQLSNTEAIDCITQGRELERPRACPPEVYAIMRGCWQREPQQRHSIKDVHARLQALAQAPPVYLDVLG

EC50 | SMILES
5360 nM | O=C(O)c1cc2c(-c3cccc4ncccc34)nccc2n1Cc1noc(-c2ccccc2)n1 [Example 16, 1-[(5-phenyl-1,2,4-oxadiazol-3-yl)methyl]-4-(quinolin-5-yl)-1H-pyrrolo[3,2-c]pyridine-2-carboxylic acid]
3920 nM | CCOc1cccc(-c2nccc3c2cc(C(=O)O)n3CCOc2ccc(C(F)(F)F)nc2)c1 [Example 38, 4-(3-Ethoxyphenyl)-1-(2-{[6-(trifluoromethyl)Pyridin-3-yl]oxy}ethyl)-1H-pyrrolo[3,2-c]pyridine-2-carboxylic acid]
162 nM | CCCNc1ncc(-c2nccc3c2cc(C(=O)O)n3CCOc2ccc(OC(F)(F)F)cc2)s1 [Example 57, 4-[2-(propylamino)-1,3-thiazol-5-yl]-1-{2-[4-(trifluoromethoxy)phenoxy]ethyl}-1H-pyrrolo[3,2-c]pyridine-2-carboxylic acid]
30700 nM | CCCNc1nccc(-c2nccc3c2cc(C(=O)O)n3CCOc2ccc(OC(F)(F)F)cc2)n1 [Example 58, 4-[2-(propylamino)pyrimidin-4-yl]-1-{2-[4-(trifluoromethoxy)phenoxy]ethyl}-1H-pyrrolo[3,2-c]pyridine-2-carboxylic acid]
776 nM | CCOc1cccc(-c2nccc3c2cc(C(=O)O)n3CCOc2ccc(Oc3nccs3)cc2)c1 [Example 73, 4-(3-ethoxyphenyl)-1-{2-[4-(1,3-thiazol-2-yloxy)phenoxy]ethyl}-1H-pyrrolo[3,2-c]pyridine-2-carboxylic acid]
28.5 nM | O=C(O)c1cc2cc(-c3cn[nH]c3)ccc2n1CCOc1ccc(OC(F)(F)F)cc1 [Example 76, 5-(1H-pyrazol-4-yl)-1-{2-[4-(trifluoromethoxy)phenoxy]ethyl}-1H-indole-2-carboxylic acid]
38.7 nM | O=C(O)c1cc2cc(-c3cncnc3)ccc2n1CCOc1ccc(OC(F)(F)F)cc1 [Example 78, 5-pyrimidin-5-yl-1-{2-[4-(trifluoromethoxy)phenoxy]ethyl}-1H-indole-2-carboxylic acid]
469 nM | O=C(O)c1cc2cc(-c3cccnc3)ccc2n1CCOc1ccc(OC(F)(F)F)cc1 [Example 81, 5-pyridin-3-yl-1-{2-[4-(trifluoromethoxy)phenoxy]ethyl}-1H-indole-2-carboxylic acid]
34.9 nM | CCOc1cccc(-c2nccc3c(CCOc4ccc(OC(F)(F)F)cc4)c(C(=O)O)[nH]c23)c1 [Example 91, 7-(3-ethoxyphenyl)-3-{2-[4-(trifluoromethoxy)phenoxy]ethyl}-1H-pyrrolo[2,3-d]pyridine-2-carboxylic acid]
1210 nM | CCOc1cccc(-c2nccn3c(CCOc4ccc(OC(F)(F)F)cc4)c(C(=O)O)nc23)c1 [Example 92, 8-(3-ethoxyphenyl)-3-{2-[4-(trifluoromethoxy)phenoxy]ethyl}imidazo[1,2-a]pyrazine-2-carboxylic acid]
